# What was measured:
# collagen 1 mRNA = assay: Collagen mRNA in fibroblasts by RT-PCR; type: cell-based, human; conditions: fibroblast cell cultures treated 72 hours
# Description: (§1) The presently claimed and disclosed inventive concept(s) further contemplates use of various DHE, IE and EV compositions and salts, esters, ethers, and derivatives thereof to mitigate the effects of aging on the skin. For all aging studies, normal human fibroblast cell cultures were used. These cells normally produce collagen, elastin and hyaluronic acid. As the skin ages, the fibroblasts in the dermis lose their ability to produce these three key components of skin, and the skin consequently loses elasticity, thickness and smooth texture. In addition, as fibroblasts age, they increase the expression of certain enzymes that destroy collagen and elastin. There are about 13 of these enzymes, collectively referred to as MMPs (matrix metalloproteinases). One of the principal MMPs, MMP-1, is responsible for collagen degradation. […] Fibroblast cell cultures were treated with either IE, DHE or EV for 72 hours at which time the amount of collagen mRNA present in the cells was determined.
# elastin mRNA = assay: Elastin mRNA in human dermal fibroblasts by RT-PCR; type: cell-based; conditions: 72 hours
# Description: as §1, with “In addition, as fibroblasts age, they increase the expression of certain enzymes that destroy collagen and elastin.” left out, “The image is from an electrophoresis gel of DNA amplified by PCR from fibroblast mRNA. This gel was analyzed and” for “Fibroblast cell cultures were treated with either IE, DHE or EV for 72 hours at which time”, “density” for “amount”, “each band quantified by image analysis software.” for “collagen mRNA present in the cells was determined.”
# [1] = system: HAS-2 (Hyaluronic acid synthase-2); assay: HAS-2 mRNA in fibroblasts by RT-PCR; type: cell-based, human; conditions: 72 hours
# Description: (§2) The presently claimed and disclosed inventive concept(s) further contemplates use of various DHE, IE and EV compositions and salts, esters, ethers, and derivatives thereof to mitigate the effects of aging on the skin. For all aging studies, normal human fibroblast cell cultures were used. These cells normally produce collagen, elastin and hyaluronic acid. As the skin ages, the fibroblasts in the dermis lose their ability to produce these three key components of skin, and the skin consequently loses elasticity, thickness and smooth texture. In addition, as fibroblasts age, they increase the expression of certain enzymes that destroy collagen and elastin. There are about 13 of these enzymes, collectively referred to as MMPs (matrix metalloproteinases). One of the principal MMPs, MMP-1, is responsible for collagen degradation. For experiments herein to determine the effects of DHE, IE and EV on collagen, elastin and hyaluronic acid, fibroblasts were treated with the compounds for 72 hours, mRNA was then isolated, and analyzed for abundance by RT-PCR (Reverse transcriptase-Polymerase Chain Reaction).
# DHE, IE and EV, are also shown herein to stimulate mRNA for HAS-2. HAS-2 (Hyaluronic acid synthase-2) is the enzyme that manufactures hyaluronic acid (HA) in the skin. HA is a glycosaminoglycan important for maintaining moisture and suppleness in the skin. […] As the skin ages, the production of HA decreases and this causes the skin to sag and become thin.
# TIMP-1 = TIMP-1 mRNA in fibroblasts by PCR; type: cell-based, human
# Description: as §2
# Fibroblasts in the skin not only produce enzymes (MMPs) that destroy the skin matrix but they also produce proteins (Tissue Inhibitors of Metalloproteinases, i.e., TIMPS) that inhibit these enzymes. There are several TIMPs, but one that is most important for inhibiting MMPs is TIMP-1. […] Shown in FIG. 11 is PCR data showing the up-regulation of TIMP-1 mRNA by these compounds.
# [2] = system: MMP-1, MMP-3, MMP-8, MMP-9 MMP-10 and MMP-13; assay: MMP protein abundance in human dermal fibroblasts (protein array blotting); type: cell-based
# Description: As mentioned above, as fibroblasts age they increase their production of MMP enzymes that destroy collagen and elastin, particularly collagenase, MMP-1. We utilized a protein array blotting technique to determine the effect of DHE, IE and EV on the protein abundance of these enzymes. As shown below, EV is able to reduce the level of several MMPs in human dermal fibroblasts, including MMP-1, MMP-3, MMP-8, MMP-9 MMP-10 and MMP-13 (FIG. 12). This remarkable effect makes this compound an ideal addition to an anti-aging product since MMP levels in aging skin are quite high.
# [3] = type: physicochemical; conditions: water-oil emulsion
# Description: This surprising and unexpected finding meant that it was necessary to identify a carrier/vehicle system that would accommodate EV in a soluble form and at the same time maintain its chemical stability (defined herein as at least 95% of the ethyl vanillin remaining chemically intact for at least 3 months). In one formulation contemplated herein, EV is dissolved in caprylic/capric triglyceride or other fatty acid triglyceride and then mixed into a silicone fluid wherein the silicone is the primary (greatest percentage) component of the formulation. The cosmetic silicone fluid used in this embodiment accepts the caprylic/capric triglyceride and allows the EV to remain in solution. […] Therefore, the presently claimed and disclosed inventive concept(s) contemplates formulations of EV in non-aqueous solutions, particularly comprising at least 20% to 25% to 30% to 35% to 40% to 45% to 50%, or up to 60%, 70%, 80% or 90% silicone thereby explicitly excluding water-in-oil, or oil-in-water, emulsions. Additionally, besides caprylic capric triglyceride, EV can be solubilized in jojoba oil, sunflower oil or squalane or any other solubilizer which is accepted by the silicones. […]
compound,measurement,setting,value
"CCOc1cc(C=O)ccc1O [EV, ethyl vanillin]",collagen production (collagen mRNA),collagen 1 mRNA,stimulation
same,elastin levels (elastin mRNA),elastin mRNA,increase
same,mRNA for HAS-2,[1],stimulate
same,production of TIMP-1 (TIMP-1 mRNA),TIMP-1,significantly stimulate
same,level of several MMPs (protein abundance),[2],reduce
same,time within which EV significantly decomposes,[3],24 to 48 h
